Measurements reported in ChEMBL document CHEMBL1201862, “PubChem BioAssay data set” (2004).
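Assay format: 96-well plates, 48-hour exposure. GI50 marks 50% less growth.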 Activity calls are given as the source filed them. Rule as the data show it: active = GI50 up to about 1.1 µM and inactive = higher.

Tests used:
Test in all cases: growth of human tumour cells (NCI), 48 h
[1] = tested on: UACC-257
[2] = tested on: SK-OV-3
[3] = tested on: DMS-273
[4] = tested on: LOX IMVI
[5] = tested on: OVCAR-8
[6] = tested on: SN12C
[7] = tested on: SW-620
[8] = tested on: HL-60
[9] = tested on: TK-10
[10] = tested on: SR
[11] = tested on: LXFL 529
[12] = tested on: K562
[13] = tested on: 786-0
[14] = tested on: T47D
[15] = tested on: HT-29
[16] = tested on: ACHN
[17] = tested on: OVCAR-4
[18] = tested on: CCRF-CEM
[19] = tested on: DMS-114
[20] = tested on: MOLT-4

`O=Nc1ccc(O)c2ncccc12` was tested, and the GI50 [1] was 6.37 µM (inactive), the GI50 [2] was 12.6 µM (inactive) and the GI50 [3] was 2.55 µM (inactive). The GI50 [4] was 3.89 µM (inactive), the GI50 [5] was 3.47 µM (inactive) and the GI50 [6] was 8.18 µM (inactive). The GI50 [7] was 4.79 µM (inactive), the GI50 [8] was 0.581 µM (active) and the GI50 [9] was 14.8 µM (inactive). The GI50 [10] was 0.328 µM (active), the GI50 [11] was 2.38 µM (inactive) and the GI50 [12] was 0.711 µM (active). For the same molecule, the GI50 [13] was 4.2 µM (inactive), the GI50 [14] was 7.53 µM (inactive) and the GI50 [15] was 15.3 µM (inactive). The GI50 [16] was 3.13 µM (inactive), the GI50 [17] was 11.6 µM (inactive) and the GI50 [18] was 0.611 µM (active). The GI50 [19] was 3.9 µM (inactive).
`CCc1cccc(C(C)C)c1C1C(=O)C(=O)N(c2nc3ccccc3s2)C(=O)C1=O` was tested, and the GI50 [1] was > 100 µM (inactive), the GI50 [2] was > 100 µM (inactive) and the GI50 [3] was > 100 µM (inactive). The GI50 [4] was > 100 µM (inactive), the GI50 [6] was > 100 µM (inactive) and the GI50 [7] was > 100 µM (inactive). The GI50 [8] was > 100 µM (inactive), the GI50 [9] was > 100 µM (inactive) and the GI50 [20] was > 100 µM (inactive). The GI50 [10] was > 100 µM (inactive), the GI50 [11] was > 100 µM (inactive) and the GI50 [12] was > 100 µM (inactive). For the same molecule, the GI50 [13] was > 100 µM (inactive), the GI50 [15] was > 100 µM (inactive) and the GI50 [16] was > 100 µM (inactive). For the same molecule, the GI50 [17] was > 100 µM (inactive), the GI50 [18] was > 100 µM (inactive) and the GI50 [19] was > 100 µM (inactive).
In the case of `Cc1ccc(NC(=O)C(=O)C(C#N)c2ccccc2C)cc1C` (configuration not stated), the GI50 [1] is reported as > 100 µM (inactive), the GI50 [2] is reported as > 100 µM (inactive) and the GI50 [3] is reported as > 71.6 µM (inactive). For the same molecule, the GI50 [4] was > 41.2 µM (inactive), the GI50 [5] was > 100 µM (inactive) and the GI50 [6] was > 100 µM (inactive). The GI50 [7] was > 41.8 µM (inactive), the GI50 [8] was > 54.1 µM (inactive) and the GI50 [9] was > 100 µM (inactive). The GI50 [20] was > 100 µM (inactive), the GI50 [10] was > 100 µM (inactive) and the GI50 [11] was > 100 µM (inactive). The GI50 [12] was > 44.9 µM (inactive), the GI50 [13] was > 68.2 µM (inactive) and the GI50 [15] was > 100 µM (inactive). The GI50 [16] was > 100 µM (inactive), the GI50 [17] was > 100 µM (inactive) and the GI50 [18] was > 61.7 µM (inactive). The GI50 [19] was > 41.7 µM (inactive).
In the case of `O=C1C[C@H](c2ccc(O)c(O)c2)Oc2cc(O)cc(O)c21`, the GI50 [1] is reported as > 100 µM (inactive), the GI50 [2] is reported as > 100 µM (inactive) and the GI50 [3] is reported as > 100 µM (inactive). The GI50 [4] was > 100 µM (inactive), the GI50 [5] was > 100 µM (inactive) and the GI50 [6] was > 100 µM (inactive). For the same molecule, the GI50 [7] was > 100 µM (inactive), the GI50 [8] was 30.6 µM (inactive) and the GI50 [9] was 73.1 µM (inactive). For the same molecule, the GI50 [20] was 74.5 µM (inactive), the GI50 [10] was 27 µM (inactive) and the GI50 [11] was > 100 µM (inactive). For the same molecule, the GI50 [12] was > 100 µM (inactive), the GI50 [13] was > 100 µM (inactive) and the GI50 [15] was > 100 µM (inactive). For the same molecule, the GI50 [16] was 65.8 µM (inactive), the GI50 [17] was > 100 µM (inactive) and the GI50 [18] was 31.2 µM (inactive). For the same molecule, the GI50 [19] was 21.2 µM (inactive).
In the case of `COc1ccc(CC#C/C=C/C(=O)NCC(C)C)cc1`, the GI50 [1] is reported as > 100 µM (inactive), the GI50 [2] is reported as > 100 µM (inactive) and the GI50 [3] is reported as > 100 µM (inactive). The GI50 [4] was > 100 µM (inactive), the GI50 [5] was > 100 µM (inactive) and the GI50 [6] was > 100 µM (inactive). For the same molecule, the GI50 [7] was > 100 µM (inactive), the GI50 [8] was 29.5 µM (inactive) and the GI50 [9] was > 100 µM (inactive). The GI50 [20] was > 100 µM (inactive), the GI50 [10] was 66.1 µM (inactive) and the GI50 [11] was > 100 µM (inactive). The GI50 [12] was 79.3 µM (inactive), the GI50 [13] was > 100 µM (inactive) and the GI50 [15] was > 100 µM (inactive). For the same molecule, the GI50 [16] was > 100 µM (inactive), the GI50 [17] was > 100 µM (inactive) and the GI50 [18] was 74.1 µM (inactive). For the same molecule, the GI50 [19] was > 100 µM (inactive).
For `CN(C)c1nc(N(C)C)sc(=O)n1`, the GI50 [1] was > 100 µM (inactive), the GI50 [2] was > 100 µM (inactive) and the GI50 [3] was > 100 µM (inactive). For the same molecule, the GI50 [5] was > 100 µM (inactive), the GI50 [6] was > 100 µM (inactive) and the GI50 [7] was > 100 µM (inactive). The GI50 [8] was > 100 µM (inactive), the GI50 [9] was > 100 µM (inactive) and the GI50 [20] was > 100 µM (inactive). The GI50 [10] was > 100 µM (inactive), the GI50 [11] was > 100 µM (inactive) and the GI50 [12] was > 100 µM (inactive). The GI50 [13] was > 100 µM (inactive), the GI50 [15] was > 100 µM (inactive) and the GI50 [16] was > 100 µM (inactive). The GI50 [17] was > 100 µM (inactive), the GI50 [18] was > 100 µM (inactive) and the GI50 [19] was > 100 µM (inactive).
